Reference: ChEMBL document CHEMBL2163337, “Trigohowilols A-G, degraded diterpenoids from the stems of Trigonostemon howii” (J Nat Prod, 2012)
Values after ≈ are worked out from the molar mass of the structure shown.

Assays:
Staphylococcus aureus [1] = experiment: Antibacterial activity against methicillin-resistant Staphylococcus aureus clinical isolate 98 by two-fold dilution method; assay type: functional
SMMC-7721 = experiment: Cytotoxicity against human SMMC7721 cells by MTT assay; assay type: functional, cell-based
HL-60 = experiment: Cytotoxicity against human HL60 cells by MTT assay; assay type: functional, cell-based
A549 = experiment: Cytotoxicity against human A549 cells by MTT assay; assay type: functional, cell-based
Staphylococcus aureus [2] = experiment: Antibacterial activity against Staphylococcus aureus ATCC 25923 by two-fold dilution method; assay type: functional
MCF7 = experiment: Cytotoxicity against human MCF7 cells by MTT assay; assay type: functional, cell-based
Pseudomonas aeruginosa = experiment: Antibacterial activity against Pseudomonas aeruginosa ATCC 27853 by two-fold dilution method; assay type: functional
SW480 = experiment: Cytotoxicity against human SW480 cells by MTT assay; assay type: functional, cell-based
Staphylococcus aureus [3] = experiment: Antibacterial activity against methicillin-resistant Staphylococcus aureus clinical isolate 92 by two-fold dilution method; assay type: functional

Structure (SMILES) | MIC (Staphylococcus aureus [1]) [µg/mL] | IC50 (SMMC-7721) [µM] | IC50 (HL-60) [µM] | IC50 (A549) [µM] | MIC (Staphylococcus aureus [2]) [µg/mL] | IC50 (MCF7) [µM] | MIC (Pseudomonas aeruginosa) [µg/mL] | IC50 (SW480) [µM] | MIC (Staphylococcus aureus [3]) [µg/mL]
COc1cc2c(cc1C)C(=O)C=C1C2=C(C2=Cc3c(cc(O)c4cc(C)c(OC)cc34)C(C)(C)C2=O)C(=O)C1(C)C [TRIGOHOWILOL F] | 12.5 (≈ 22.8 µM) | 2.33 | 2.49 | 3.64 | 12.5 (≈ 22.8 µM) | 4.2 | 25 (≈ 45.6 µM) | 3.56 | 12.5 (≈ 22.8 µM)
COc1cc2c(cc1C)C(=O)C=C1C2=C(C2=C3C(=CC(=O)c4cc(C)c(OC)cc43)C(C)(C)C2=O)C(=O)C1(C)C [TRIGOHOWILOL G] | > 50 | 2.78 | 17.8 | 5.35 | > 50 | 15.5 | > 50 | 8.39 | > 50
Cc1cc2c(cc1O)C1=C(C3=Cc4c(cc(O)c5cc(C)c(O)cc45)C(C)(C)C3=O)C(=O)C(C)(C)C1=CC2=O [TRIGOHOWILOL C] | 25 (≈ 48 µM) | > 40 | > 40 | > 40 | 25 (≈ 48 µM) | > 40 | 25 (≈ 48 µM) | > 40 | 25 (≈ 48 µM)
CN[C@H](CC(C)C)C(=O)N[C@H]1C(=O)N[C@@H](CC(N)=O)C(=O)N[C@H]2C(=O)N[C@H]3C(=O)N[C@H](C(=O)N[C@H](C(=O)O)c4cc(O)cc(O)c4-c4cc3ccc4O)[C@H](O)c3ccc(c(Cl)c3)Oc3cc2cc(c3O[C@@H]2O[C@H](CO)[C@@H](O)[C@H](O)[C@H]2O[C@H]2C[C@](C)(N)[C@H](O)[C@H](C)O2)Oc2ccc(cc2Cl)[C@H]1O.Cl [VANCOMYCIN HYDROCHLORIDE] | 0.78 |  |  |  | 0.78 |  | 0.78 |  | 0.78
Cc1cc2ccc3c(c2cc1O)C=C(O)C(=O)C3(C)C [TRIGOHOWILOL B] | 50 (≈ 186 µM) | > 40 | > 40 | > 40 | 25 (≈ 93.2 µM) | > 40 | 25 (≈ 93.2 µM) | > 40 | 50 (≈ 186 µM)
COc1cc2c3c(cc(O)c2cc1C)C(C)(C)C(=O)C(C1=C2C(=CC(=O)c4cc(C)c(O)cc42)C(C)(C)C1=O)=C3 [TRIGOHOWILOL D] | 12.5 (≈ 23.4 µM) | > 40 | 24.3 | > 40 | 12.5 (≈ 23.4 µM) | > 40 | 25 (≈ 46.8 µM) | > 40 | 12.5 (≈ 23.4 µM)
COc1cc2c3c(cc(O)c2cc1C)C(C)(C)C(=O)C=C3 [TRIGOHOWILOL A] | 25 (≈ 88.5 µM) | > 40 | 24.8 | 35.6 | 25 (≈ 88.5 µM) | > 40 | 25 (≈ 88.5 µM) | > 40 | 25 (≈ 88.5 µM)
COc1cc2c(cc1C)C(=O)C=C1C2=C(C2=Cc3c(cc(O)c4cc(C)c(O)cc34)C(C)(C)C2=O)C(=O)C1(C)C [TRIGOHOWILOL E] | 12.5 (≈ 23.4 µM) | 3.25 | 2.61 | 9.69 | 6.25 (≈ 11.7 µM) | 12.6 | 50 (≈ 93.5 µM) | 9.42 | 25 (≈ 46.8 µM)
